Measured values reported in patent US20260297081A1, “COMPOUNDS AND METHODS OF TREATING CANCERS” (Cullgen Inc., priority 2023, published 2026).

Biological target: CDK4 (Homo sapiens, UniProt P11802+Q16531)
Assay: CDK4 percentage degradation in Calu-1 cells (Table 6)
Type: cell-based
Set-up: Cells that express cyclin D1-3 and CDK4/6 proteins were treated with heterobifunctional compounds; endogenous in cells; host or cells: Calu-1
Conditions: 16 hours; for inhibition at 0.04 µM: 40 nM; for inhibition at 0.2 µM: 200 nM
Method in brief: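 Calu-1 cells exposed to heterobifunctional compounds at 40 nM or 200 nM for 16 h. Cyclin D1 and CDK4 levels measured by Western blot of RIPA lysates (BCA-normalised loading), bands quantified by densitometry and expressed as percentage degradation.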

Sequence of CDK4 (P11802 2-303 limits assumed): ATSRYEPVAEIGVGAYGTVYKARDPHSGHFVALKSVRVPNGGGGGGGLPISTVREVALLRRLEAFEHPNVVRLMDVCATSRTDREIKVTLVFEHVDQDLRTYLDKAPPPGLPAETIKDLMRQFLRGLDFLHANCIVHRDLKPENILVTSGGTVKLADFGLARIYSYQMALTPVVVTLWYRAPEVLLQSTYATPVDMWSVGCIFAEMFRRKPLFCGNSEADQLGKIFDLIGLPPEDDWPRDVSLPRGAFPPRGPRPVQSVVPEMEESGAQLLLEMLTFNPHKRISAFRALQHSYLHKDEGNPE
Sequence of CDK4 (P24385 whole entry partner): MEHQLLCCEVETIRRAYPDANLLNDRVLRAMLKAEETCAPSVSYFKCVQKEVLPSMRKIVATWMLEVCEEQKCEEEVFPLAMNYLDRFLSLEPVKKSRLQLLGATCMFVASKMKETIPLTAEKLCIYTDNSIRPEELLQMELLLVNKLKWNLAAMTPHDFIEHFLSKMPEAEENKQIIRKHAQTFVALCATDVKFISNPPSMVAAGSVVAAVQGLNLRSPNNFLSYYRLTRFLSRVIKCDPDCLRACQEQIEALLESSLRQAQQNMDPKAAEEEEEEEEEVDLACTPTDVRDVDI
Sequence of CDK4 (Q16531 2-1140 limits assumed): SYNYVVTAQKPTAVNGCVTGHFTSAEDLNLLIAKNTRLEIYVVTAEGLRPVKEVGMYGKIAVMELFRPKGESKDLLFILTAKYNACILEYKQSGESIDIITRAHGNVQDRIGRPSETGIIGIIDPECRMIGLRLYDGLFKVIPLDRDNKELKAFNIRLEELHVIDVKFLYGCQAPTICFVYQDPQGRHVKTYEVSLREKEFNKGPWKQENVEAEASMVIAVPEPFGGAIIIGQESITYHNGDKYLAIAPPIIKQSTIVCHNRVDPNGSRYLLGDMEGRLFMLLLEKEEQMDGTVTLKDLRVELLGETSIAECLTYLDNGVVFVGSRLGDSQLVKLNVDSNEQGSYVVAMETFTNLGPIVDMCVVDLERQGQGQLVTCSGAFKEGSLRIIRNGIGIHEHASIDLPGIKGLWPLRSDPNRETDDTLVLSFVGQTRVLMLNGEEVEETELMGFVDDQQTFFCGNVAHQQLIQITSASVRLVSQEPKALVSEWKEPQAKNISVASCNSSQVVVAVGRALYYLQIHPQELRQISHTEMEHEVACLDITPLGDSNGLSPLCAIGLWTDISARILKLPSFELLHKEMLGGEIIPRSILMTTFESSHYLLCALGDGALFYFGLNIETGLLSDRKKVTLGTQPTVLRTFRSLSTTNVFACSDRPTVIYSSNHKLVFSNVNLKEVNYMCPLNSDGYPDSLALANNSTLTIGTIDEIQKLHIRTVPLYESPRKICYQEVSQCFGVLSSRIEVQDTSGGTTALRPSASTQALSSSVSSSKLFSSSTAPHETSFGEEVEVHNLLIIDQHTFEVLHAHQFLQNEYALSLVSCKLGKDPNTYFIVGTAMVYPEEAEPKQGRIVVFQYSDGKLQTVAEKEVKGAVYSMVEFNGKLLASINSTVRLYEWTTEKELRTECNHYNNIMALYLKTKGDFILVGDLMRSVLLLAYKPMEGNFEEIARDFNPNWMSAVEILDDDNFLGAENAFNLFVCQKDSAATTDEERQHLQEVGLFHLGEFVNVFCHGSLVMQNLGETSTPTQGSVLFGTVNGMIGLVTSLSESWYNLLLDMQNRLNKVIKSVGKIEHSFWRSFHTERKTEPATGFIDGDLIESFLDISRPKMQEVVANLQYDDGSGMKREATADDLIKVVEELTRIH

inhibition at 0.04 µM [%]	inhibition at 0.2 µM [%]	Structure (SMILES)
< 30	30 to 50	CNc1ccc(C(=O)Nc2ccc(N(C)C)nn2)c(NC2CC3(CC(CCCN4CCN(c5ccc(Nc6ncc7c(C)c(C(C)=O)c(=O)n(C8CCCC8)c7n6)nc5)CC4)C3)C2)n1 (stereo not shown) [CPD-83, 2-((6-(3-(4-(6-((6-Acetyl-8-cyclopentyl-5-methyl-7-oxo-7,8-dihydropyrido[2,3-d]pyrimidin-2-yl)amino)pyridin-3-yl)piperazin-1-yl)propyl)spiro[3.3]heptan-2-yl)amino)-N-(6-(dimethylamino)pyridazin-3-yl)-6-(methylamino)nicotinamide]
< 30	< 30	CNc1ccc(C(=O)Nc2ccnc(C3CC3)c2)c(NC2CC3(CC(NC(=O)CN4CCN(c5ccc(Nc6ncc7c(C)c(C(C)=O)c(=O)n(C8CCCC8)c7n6)nc5)CC4)C3)C2)n1 (stereo not shown) [CPD-86, 2-((6-(2-(4-(6-((6-Acetyl-8-cyclopentyl-5-methyl-7-oxo-7,8-dihydropyrido[2,3-d]pyrimidin-2-yl)amino)pyridin-3-yl)piperazin-1-yl)acetamido)spiro[3.3]heptan-2-yl)amino)-N-(2-cyclopropylpyridin-4-yl)-6-(methylamino)nicotinamide]
< 30	< 30	CNc1ccc(C(=O)Nc2ccc(C(F)(F)F)c(C3CC3)n2)c(NC2CC3(CC(NC(=O)CN4CCN(c5ccc(Nc6ncc7c(C)c(C(C)=O)c(=O)n(C8CCCC8)c7n6)nc5)CC4)C3)C2)n1 (stereo not shown) [CPD-87, 2-((6-(2-(4-(6-((6-Acetyl-8-cyclopentyl-5-methyl-7-oxo-7,8-dihydropyrido[2,3-d]pyrimidin-2-yl)amino)pyridin-3-yl)piperazin-1-yl)acetamido)spiro[3.3]heptan-2-yl)amino)-N-(6-cyclopropyl-5-(trifluoromethyl)pyridin-2-yl)-6-(methylamino)nicotinamide]
30 to 50	50 to 80	CNc1ccc(C(=O)Nc2cccc(N(C)C)n2)c(NC2CC3(CC(NC(=O)CN4CCN(c5ccc(Nc6ncc7c(C)c(C(C)=O)c(=O)n(C8CCCC8)c7n6)nc5)CC4)C3)C2)n1 (stereo not shown) [CPD-88, 2-((6-(2-(4-(6-((6-Acetyl-8-cyclopentyl-5-methyl-7-oxo-7,8-dihydropyrido[2,3-d]pyrimidin-2-yl)amino)pyridin-3-yl)piperazin-1-yl)acetamido)spiro[3.3]heptan-2-yl)amino)-N-(6-(dimethylamino)pyridin-2-yl)-6-(methylamino)nicotinamide]
50 to 80	50 to 80	CNc1ccc(C(=O)Nc2ccc(N(C)C)nn2)c(NCCC2CCN(C(=O)CN3CCN(c4ccc(Nc5ncc6c(C)c(C(C)=O)c(=O)n(C7CCCC7)c6n5)nc4)CC3)CC2)n1 [CPD-89, 2-((2-(1-(2-(4-(6-((6-Acetyl-8-cyclopentyl-5-methyl-7-oxo-7,8-dihydropyrido[2,3-d]pyrimidin-2-yl)amino)pyridin-3-yl)piperazin-1-yl)acetyl)piperidin-4-yl)ethyl)amino)-N-(6-(dimethylamino)pyridazin-3-yl)-6-(methylamino)nicotinamide]
< 30	50 to 80	CNc1ccc(C(=O)Nc2cccc(C#N)n2)c(NC2CC3(CC(NC(=O)CN4CCN(c5ccc(Nc6ncc7c(C)c(C(C)=O)c(=O)n(C8CCCC8)c7n6)nc5)CC4)C3)C2)n1 (stereo not shown) [CPD-90, 2-((6-(2-(4-(6-((6-Acetyl-8-cyclopentyl-5-methyl-7-oxo-7,8-dihydropyrido[2,3-d]pyrimidin-2-yl)amino)pyridin-3-yl)piperazin-1-yl)acetamido)spiro[3.3]heptan-2-yl)amino)-N-(6-cyanopyridin-2-yl)-6-(methylanino)nicotinamide]
< 30	30 to 50	CNc1ccc(C(=O)Nc2cccc(C(F)(F)F)n2)c(NC2CC3(CC(NC(=O)CN4CCN(c5ccc(Nc6ncc7c(C)c(C(C)=O)c(=O)n(C8CCCC8)c7n6)nc5)CC4)C3)C2)n1 (stereo not shown) [CPD-91, 2-((6-(2-(4-(6-((6-Acetyl-8-cyclopentyl-5-methyl-7-oxo-7,8-dihydropyrido[2,3-d]pyrimidin-2-yl)amino)pyridin-3-yl)piperazin-1-yl)acetamido)spiro[3.3]heptan-2-yl)amino)-6-(methylamino)-N-(6-(trifluoromethyl)pyridin-2-yl)nicotinamide]
< 30	< 30	CNc1ccc(C(=O)Nc2cc(C)[nH]n2)c(NC2CC3(CC(NC(=O)CN4CCN(c5ccc(Nc6ncc7c(C)c(C(C)=O)c(=O)n(C8CCCC8)c7n6)nc5)CC4)C3)C2)n1 (stereo not shown) [CPD-92, 2-((6-(2-(4-(6-((6-Acetyl-8-cyclopentyl-5-methyl-7-oxo-7,8-dihydropyrido[2,3-d]pyrimidin-2-yl)amino)pyridin-3-yl)piperazin-1-yl)acetamido)spiro[3.3]heptan-2-yl)amino)-N-(5-methyl-1H-pyrazol-3-yl)-6-(methylamino)nicotinamide]
30 to 50	50 to 80	CNc1ccc(C(=O)Nc2ccn(C)n2)c(NC2CC3(CC(NC(=O)CN4CCN(c5ccc(Nc6ncc7c(C)c(C(C)=O)c(=O)n(C8CCCC8)c7n6)nc5)CC4)C3)C2)n1 (stereo not shown) [CPD-93, 2-((6-(2-(4-(6-((6-Acetyl-8-cyclopentyl-5-methyl-7-oxo-7,8-dihydropyrido[2,3-d]pyrimidin-2-yl)amino)pyridin-3-yl)piperazin-1-yl)acetamido)spiro[3.3]heptan-2-yl)amino)-N-(1-methyl-1H-pyrazol-3-yl)-6-(methylamino)nicotinamide]
< 30	30 to 50	CNc1ccc(C(=O)Nc2cnn(C)c2)c(NC2CC3(CC(NC(=O)CN4CCN(c5ccc(Nc6ncc7c(C)c(C(C)=O)c(=O)n(C8CCCC8)c7n6)nc5)CC4)C3)C2)n1 (stereo not shown) [CPD-94, 2-((6-(2-(4-(6-((6-Acetyl-8-cyclopentyl-5-methyl-7-oxo-7,8-dihydropyrido[2,3-d]pyrimidin-2-yl)amino)pyridin-3-yl)piperazin-1-yl)acetamido)spiro[3.3]heptan-2-yl)amino)-N-(1-methyl-1H-pyrazol-4-yl)-6-(methylamino)nicotinamide]
< 30	< 30	CNc1ccc(C(=O)Nc2cc(C(C)C)n(C)n2)c(NC2CC3(CC(NC(=O)CN4CCN(c5ccc(Nc6ncc7c(C)c(C(C)=O)c(=O)n(C8CCCC8)c7n6)nc5)CC4)C3)C2)n1 (stereo not shown) [CPD-95, 2-((6-(2-(4-(6-((6-Acetyl-8-cyclopentyl-5-methyl-7-oxo-7,8-dihydropyrido[2,3-d]pyrimidin-2-yl)amino)pyridin-3-yl)piperazin-1-yl)acetamido)spiro[3.3]heptan-2-yl)amino)-N-(5-isopropyl-1-methyl-1H-pyrazol-3-yl)-6-(methylamino)nicotinamide]
< 30	< 30	CNc1ccc(C(=O)Nc2ccc(N(C)C)nn2)c(NC2CC3(CC(NCCN4CCN(c5ccc(Nc6ncc7c(C)c(C(C)=O)c(=O)n(C8CCCC8)c7n6)nc5)CC4)C3)C2)n1 (stereo not shown) [CPD-96, 2-((6-((2-(4-(6-((6-Acetyl-8-cyclopentyl-5-methyl-7-oxo-7,8-dihydropyrido[2,3-d]pyrimidin-2-yl)amino)pyridin-3-yl)piperazin-1-yl)ethyl)amino)spiro[3.3]heptan-2-yl)amino)-N-(6-(dimethylamino)pyridazin-3-yl)-6-(methylamino)nicotinamide]
50 to 80	> 80	CNc1ccc(C(=O)Nc2ccc(N(C)C)nn2)c(NC2CC3(C2)CN(C(=O)CN2CCN(c4ccc(Nc5ncc6c(C)c(C(C)=O)c(=O)n(C7CCCC7)c6n5)nc4)CC2)C3)n1 [CPD-97]
30 to 50	50 to 80	CNc1ccc(C(=O)Nc2cc(C3CC3)n(C)n2)c(NC2CC3(CC(NC(=O)CN4CCN(c5ccc(Nc6ncc7c(C)c(C(C)=O)c(=O)n(C8CCCC8)c7n6)nc5)CC4)C3)C2)n1 (stereo not shown) [CPD-98, 2-((6-(2-(4-(6-((6-Acetyl-8-cyclopentyl-5-methyl-7-oxo-7,8-dihydropyrido[2,3-d]pyrimidin-2-yl)amino)pyridin-3-yl)piperazin-1-yl)acetamido)spiro[3.3]heptan-2-yl)amino)-N-(5-cyclopropyl-1-methyl-1H-pyrazol-3-yl)-6-(methylamino)nicotinamide]
30 to 50	50 to 80	CNc1ccc(C(=O)Nc2cc(C)n(C(C)C)n2)c(NC2CC3(CC(NC(=O)CN4CCN(c5ccc(Nc6ncc7c(C)c(C(C)=O)c(=O)n(C8CCCC8)c7n6)nc5)CC4)C3)C2)n1 (stereo not shown) [CPD-99, 2-((6-(2-(4-(6-((6-Acetyl-8-cyclopentyl-5-methyl-7-oxo-7,8-dihydropyrido[2,3-d]pyrimidin-2-yl)amino)pyridin-3-yl)piperazin-1-yl)acetamido)spiro[3.3]heptan-2-yl)amino)-N-(1-isopropyl-5-methyl-1H-pyrazol-3-yl)-6-(methylamino)nicotinamide]
< 30	50 to 80	CNc1ccc(C(=O)Nc2cc[nH]n2)c(NC2CC3(CC(NC(=O)CN4CCN(c5ccc(Nc6ncc7c(C)c(C(C)=O)c(=O)n(C8CCCC8)c7n6)nc5)CC4)C3)C2)n1 (stereo not shown) [CPD-100, 2-((6-(2-(4-(6-((6-Acetyl-8-cyclopentyl-5-methyl-7-oxo-7,8-dihydropyrido[2,3-d]pyrimidin-2-yl)amino)pyridin-3-yl)piperazin-1-yl)acetamido)spiro[3.3]heptan-2-yl)amino)-6-(methylamino)-N-(1H-pyrazol-3-yl)nicotinamide]
50 to 80	50 to 80	CNc1ccc(C(=O)Nc2ccc(N(C)C)nn2)c(NCCCC2CN(C(=O)CN3CCN(c4ccc(Nc5ncc6c(C)c(C(C)=O)c(=O)n(C7CCCC7)c6n5)nc4)CC3)C2)n1 [CPD-102, 2-((3-(1-(2-(4-(6-((6-Acetyl-8-cyclopentyl-5-methyl-7-oxo-7,8-dihydropyrido[2,3-d]pyrimidin-2-yl)amino)pyridin-3-yl)piperazin-1-yl)acetyl)azetidin-3-yl)propyl)amino)-N-(6-(dimethylamino)pyridazin-3-yl)-6-(methylamino)nicotinamide]
